{
  "source": "patent US20170050045A1",
  "about": "“PHOTODYNAMIC THERAPY USING IN SITU NONLINEAR PHOTON UPCONVERSION OF NIR LIGHT BY BIOLOGICAL MEDIUM” (The Research Foundation for The State University Of New York, priority 2014, published 2017)",
  "key": {"[1]": {"tested_on": "HeLa cells", "assay": "PDT phototoxicity in cultured HeLa cells, CARS/FWM/TPA vs TPA excitation (calcein AM / propidium iodide staining)", "format": "cell-based", "conditions": "90 μM, 90 min incubation, average of four series", "from_the_text": "Materials and Methods. Optical setup. The experimental setup used for the present nonlinear optical excitation of PDT utilized a custom made laser scanning microscopy system with two excitation NIR laser sources. A picosecond Nd:YVO4 laser (picoTRAIN IC-10000/532-4000, HighQ Laser) with pulse width ˜5 ps and a repetition rate of 76 MHz was used as the source for the Stokes wave ωs at the fundamental output of 1064 nm as well as for synchronous pumping of a tunable optical parametric oscillator (OPO, Levante Emerald, APE) by using its 532 second harmonic output with a pulse width of ˜4 ps. […] When the beating frequency ωp-ωs is tuned to be resonant with a vibrational mode of a selected molecular bond, the CARS signal together with its nonresonant electronic FWM background signal is detected at the anti-Stokes frequency of ωas=2ωp−ωs. Using our instrument setup, a sample can be excited and the imaged in the CARS/FWM mode in the vibrational frequency range of 900-3300 cm^−1 and simultaneously at 670-990 nm in the TPEF (two-photon excited fluorescence) or/and in the SHG mode. […] Thus, this experimental setup enables concurrent operation of the system in the PDT excitation mode as well as in the imaging mode (CARS/FWM/fluorescence) which is highly suitable for PDT process monitoring. […]"}, "[2]": {"tested_on": "HeLa cells", "assay": "PDT phototoxicity in HeLa cells grown on collagen substrates, SHG excitation at 818 nm (detached and PI positive cells counted)", "format": "cell-based", "procedure": "To verify the efficiency of the different nonlinear-optical conversion mechanisms for PDT excitation, cell cultured samples were used in different lay-outs permitting separation of the relative contribution of one specific nonlinear process. All experiments were made in a Petri dish through the bottom optical glass window in an inverted microscopy configuration. When cells were grown directly on the optical glass window, the pump and Stokes waves were synchronized with a zero delay and the beams were focused into the cell culture treated with the photosensitizer, CARS/FWM signals were generated by the natural intercellular biomolecules of proteins or lipids. In this case, the CARS/FWM conversion was also supplemented by the TPA process directly in the photosensitizer and a combination of CARS/FWM/TPA was obtained (see diagram 1 in FIG. 3a). To separate the TPA contribution, a pulse delay of ˜5 ps between the pump and the Stokes waves was introduced which disabled the CARS/FWM process. Therefore, with the pulse delay t, TPA of photosensitizer produced the dominant PDT effect (see diagram 2 in FIG. 3a). We used another lay-out in which cells were grown on a thin layer of polymerized collagen gel (ordered collagen structures). When the pump and Stokes laser beams were focused in collagen and had zero delay, SHG/FWM/SFG (sum frequency generation) nonlinear interactions occurred in the collagen layer (see diagram 3 in FIG. 3a). To selectively look at the SHG contribution, a pulse delay was introduced which disabled the FWM and SFG processes. The second harmonic signal generated by the collagen structure propagated to reach the cells treated with the photosensitizer, and efficiently absorbed by it to excite PDT (see diagram 4 in FIG. 3a). The dose of laser radiation delivered to the sample was estimated to be ˜60 J/cm^2 at 812.6 or 818.8 nm; ˜30 J/cm^2 at 1064 nm per scan, for CARS/FWM in proteins/lipids cellular environmental medium; and ˜60 J/cm^2 for SHG in polymerized collagen gels.\nCell culture, drug treatment and PDT design. The process of PDT was modeled on the cultured HeLa cells. FIG. 3b diagrammatically illustrates the PDT procedure. HeLa cells were grown in Advanced DMEM (Life Technologies), supplemented with 2.5% fetal calf serum (FBS) (Sigma, St. Louis, Mo.), 1% glutamax (Life Technologies), 1% Antibiotic Antimycotic Solution (Sigma) at 37° C. in a humidified atmosphere containing 5% CO2. Prior to the incorporation of the photosensitizer and PDT experiments, cells were placed into glass-bottom dishes (MatTek, Ashland, Mass.). In the experiments involving SHG, the glass-bottom dishes were coated either with monomeric collagen (Sigma) or with collagen gels polymerized on the glass window. A stock solution of Chlorin-e6 was prepared in DMSO. The PDT process in the cultured cells was initiated by nonlinear optical excitation of the Chlorin-e6 photosensitizer, which was diluted to a final concentration of 90 μM in Advanced DMEM containing 15% FBS and 0.005% Tween 80. Cells were incubated with the drug for ninety minutes, thoroughly washed to remove unincorporated drug and subsequently used for optical exposure for PDT treatment.\nDuring the laser irradiation, cells were maintained at 37° C. and 5% CO2 in a Live-Cell incubator (Pathology Devices, Westminster, Md.) mounted on the microscope stage. Following the laser irradiation, the cells were incubated for 4 hours in a fresh regular medium at 37° C. […]"}},
  "data": [
    {"smiles": "C=Cc1c(C)c2cc3nc(c(CC(=O)O)c4[nH]c(cc5nc(cc1[nH]2)C(C)=C5CC)c(C)c4C(=O)O)[C@@H](CCC(=O)O)[C@@H]3C", "note": "[Chlorin e6]", "values": [
      {"measurement": "necrotic cells (PI positive cells)", "setting": "[1]; CARS/FWM/TPA mode (zero pulse delay), 818 nm pump + 1064 nm Stokes, 70 scans, ~6300 J/cm^2", "result": 40, "unit": "%"},
      {"measurement": "necrotic cells (PI positive cells)", "setting": "[1]; TPA mode (delayed pulses), same number of scans (70)", "result": 20, "unit": "%"},
      {"measurement": "difference in phototoxicity between polymerized and monomeric collagen groups", "setting": "[2]; 50 scans, 818 nm, 3000 J/cm^2", "result": "tenfold"},
      {"measurement": "detachment from the substrate, or positive PI staining of cells", "setting": "[2]; cells on fibrillar (polymerized) collagen, 50 scans by 818 nm pulsed laser, 3000 J/cm^2, 90 μM", "result": "up to 50%"},
      {"measurement": "detached and PI positive cells", "setting": "[2]; cells on fibrillar collagen substrates, 75 scans, 818 nm, ~4500/cm^2, 90 μM", "result": "~70", "unit": "%"},
      {"measurement": "cytotoxicity, by counting of the detached and PI positive cells", "setting": "[2]; cells on monomeric collagen, 50 scans by 818 nm pulsed laser, 3000 J/cm^2, 90 μM", "result": "less than 5%"},
      {"measurement": "cells either detached or displayed PI stain", "setting": "[2]; cells on monomeric collagen, 75 scans, 818 nm, ~4500/cm^2, 90 μM", "result": "~35", "unit": "%"}
    ]}
  ]
}
